Data published in patent US12496348B2, “Small molecule target bromo/acetyl proteins and uses thereof” (DANA-FARBER CANCER INSTITUTE, INC., priority 2019, dated 2025).

Assays:
Format in all cases: cell-based
[1] = biological target: CBP (Homo sapiens (Human), UniProt Q92793); experiment: Western blot for CBP degradation in Kelly NB cells; conditions: 8 and 16 hours, at 3 μM
Description: (§1) […] Whole cell lysates were collected using ice cold lysis buffer [300 mM NaCl, 50 mM Tris-HCl, pH 7.5, 0.5% Triton X-100, 1% sodium dodecyl sulfate (SDS), 1 mM dithiothreitol (DTT) (Invitrogen™), Roche®'s cOmplete™ protease inhibitor cocktail (1:000), 25 units/mL Benzonase®] and blotted at a protein concentration of 30 μg for EP300 and CBP and 10 μg for histone H3 and H3K27ac. Lysates were also blotted for bromodomain-containing protein 4 (BRD4). Lysates were resolved in NuPAGE™ 3-8% Tris-Acetate polyacrylamide gels (EA03785BOX, Invitrogen™) for EP300 and CBP and Bolt 4-12% Bis-Tris polyacrylamide gels (NW04125BOX, Invitrogen™) for H3 and H3K27ac. Afterwards, gels were transferred to nitrocellulose membranes (LC2001, Invitrogen™). […] Visualization was performed on an Odyssey infrared imaging system (LiCor® Biosciences).

[2] = biological target: EP300 (Homo sapiens (Human), UniProt Q09472); experiment: Western blot for EP300 degradation in Kelly NB cells; conditions: 8 and 16 hours, at 3 μM
Sequence of EP300 (Q09472 whole entry): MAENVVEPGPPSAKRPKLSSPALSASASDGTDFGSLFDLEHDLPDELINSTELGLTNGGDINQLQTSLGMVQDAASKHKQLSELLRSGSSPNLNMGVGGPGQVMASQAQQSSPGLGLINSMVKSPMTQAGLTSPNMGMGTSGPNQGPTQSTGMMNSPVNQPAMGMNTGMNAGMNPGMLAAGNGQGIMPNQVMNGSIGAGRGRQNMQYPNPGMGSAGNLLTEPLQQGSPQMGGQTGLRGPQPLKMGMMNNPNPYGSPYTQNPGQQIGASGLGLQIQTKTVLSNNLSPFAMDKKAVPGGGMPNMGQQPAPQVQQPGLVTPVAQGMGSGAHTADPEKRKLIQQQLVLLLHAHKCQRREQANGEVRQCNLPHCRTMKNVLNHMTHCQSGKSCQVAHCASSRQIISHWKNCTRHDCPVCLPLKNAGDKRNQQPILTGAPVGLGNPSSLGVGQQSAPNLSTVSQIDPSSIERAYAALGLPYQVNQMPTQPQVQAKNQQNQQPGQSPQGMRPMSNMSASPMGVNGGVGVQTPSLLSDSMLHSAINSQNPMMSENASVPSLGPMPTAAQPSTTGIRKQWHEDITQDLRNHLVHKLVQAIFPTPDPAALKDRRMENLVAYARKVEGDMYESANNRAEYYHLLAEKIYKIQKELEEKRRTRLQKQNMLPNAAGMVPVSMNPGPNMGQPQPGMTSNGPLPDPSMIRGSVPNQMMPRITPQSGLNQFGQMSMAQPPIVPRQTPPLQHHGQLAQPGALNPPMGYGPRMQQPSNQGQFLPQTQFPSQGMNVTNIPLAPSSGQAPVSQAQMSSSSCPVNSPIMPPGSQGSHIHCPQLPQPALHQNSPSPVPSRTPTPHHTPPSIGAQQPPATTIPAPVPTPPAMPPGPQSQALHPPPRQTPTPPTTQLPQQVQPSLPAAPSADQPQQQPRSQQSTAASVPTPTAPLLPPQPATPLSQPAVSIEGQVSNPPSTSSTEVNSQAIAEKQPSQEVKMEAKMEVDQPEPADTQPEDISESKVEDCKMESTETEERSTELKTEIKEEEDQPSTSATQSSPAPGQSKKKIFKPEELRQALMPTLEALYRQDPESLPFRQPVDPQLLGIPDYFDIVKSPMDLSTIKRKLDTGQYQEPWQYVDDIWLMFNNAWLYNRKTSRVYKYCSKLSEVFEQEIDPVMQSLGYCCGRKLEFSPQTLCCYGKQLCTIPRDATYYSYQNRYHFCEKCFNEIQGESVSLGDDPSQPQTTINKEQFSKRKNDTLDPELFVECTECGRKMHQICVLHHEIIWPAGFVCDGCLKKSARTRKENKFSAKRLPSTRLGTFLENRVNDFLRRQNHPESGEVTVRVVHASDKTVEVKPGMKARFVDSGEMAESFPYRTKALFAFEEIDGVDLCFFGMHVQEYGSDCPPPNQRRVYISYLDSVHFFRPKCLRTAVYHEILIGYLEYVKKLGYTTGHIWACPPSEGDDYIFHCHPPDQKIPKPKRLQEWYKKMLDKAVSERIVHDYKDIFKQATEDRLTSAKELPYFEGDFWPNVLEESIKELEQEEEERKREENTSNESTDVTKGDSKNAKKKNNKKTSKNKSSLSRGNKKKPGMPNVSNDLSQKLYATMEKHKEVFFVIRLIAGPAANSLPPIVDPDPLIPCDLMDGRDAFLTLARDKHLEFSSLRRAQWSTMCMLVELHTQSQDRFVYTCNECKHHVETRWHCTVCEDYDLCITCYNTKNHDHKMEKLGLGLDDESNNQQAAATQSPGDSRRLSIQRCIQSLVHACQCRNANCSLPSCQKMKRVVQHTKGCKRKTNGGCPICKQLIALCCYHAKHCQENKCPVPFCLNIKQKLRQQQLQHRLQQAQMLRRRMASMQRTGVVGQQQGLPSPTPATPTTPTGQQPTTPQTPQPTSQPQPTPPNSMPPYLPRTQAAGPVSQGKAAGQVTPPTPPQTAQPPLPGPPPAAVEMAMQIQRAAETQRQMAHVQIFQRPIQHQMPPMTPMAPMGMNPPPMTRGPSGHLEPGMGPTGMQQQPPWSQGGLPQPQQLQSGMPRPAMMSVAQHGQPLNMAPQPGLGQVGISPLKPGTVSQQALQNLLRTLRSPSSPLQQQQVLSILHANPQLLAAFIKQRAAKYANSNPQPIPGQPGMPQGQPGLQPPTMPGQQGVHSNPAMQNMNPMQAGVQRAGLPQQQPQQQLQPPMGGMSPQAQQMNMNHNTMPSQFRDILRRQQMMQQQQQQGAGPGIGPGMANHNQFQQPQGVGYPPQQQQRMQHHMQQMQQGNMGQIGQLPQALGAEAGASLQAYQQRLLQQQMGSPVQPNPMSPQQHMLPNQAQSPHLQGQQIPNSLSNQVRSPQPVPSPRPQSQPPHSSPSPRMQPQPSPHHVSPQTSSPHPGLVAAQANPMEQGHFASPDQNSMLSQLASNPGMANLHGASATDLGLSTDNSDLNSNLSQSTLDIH
Description: as §1

[3] = system: BRD2/3/4; experiment: Western blot, selectivity against BRD2/3/4 in Kelly NB cells; conditions: 8 and 16 hours
Description: […] Whole cell lysates were collected using ice cold lysis buffer [300 mM NaCl, 50 mM Tris-HCl, pH 7.5, 0.5% Triton X-100, 1% sodium dodecyl sulfate (SDS), 1 mM dithiothreitol (DTT) (Invitrogen™), Roche®'s cOmplete™ protease inhibitor cocktail (1:000), 25 units/mL Benzonase®] and blotted at a protein concentration of 30 μg for EP300 and CBP and 10 μg for histone H3 and H3K27ac. Lysates were also blotted for bromodomain-containing protein 4 (BRD4). Lysates were resolved in NuPAGE™ 3-8% Tris-Acetate polyacrylamide gels (EA03785BOX, Invitrogen™) for EP300 and CBP and Bolt 4-12% Bis-Tris polyacrylamide gels (NW04125BOX, Invitrogen™) for H3 and H3K27ac. Afterwards, gels were transferred to nitrocellulose membranes (LC2001, Invitrogen™). Primary and secondary antibodies used included anti-p300 at 1:500 dilution (ab10485, Abcam®), anti-CBP at 1:500 dilution (D6C5, Cell Signaling Technology®), anti-Actin at 1:5000 dilution (3700S, Cell Signaling Technology®), anti-H3 at 1:1000 dilution (4499S, Cell Signaling Technology®), anti-H3K27ac at 1:1000 dilution (ab4729, Abcam®), IRDye®800 goat anti-rabbit at 1:5000 dilution (926-32211, LiCor® Biosciences) and IRDye®680 goat anti-mouse at 1:5000 dilution (926-68070, LiCor®). Visualization was performed on an Odyssey infrared imaging system (LiCor® Biosciences).

Sequence of CBP (Q92793 whole entry): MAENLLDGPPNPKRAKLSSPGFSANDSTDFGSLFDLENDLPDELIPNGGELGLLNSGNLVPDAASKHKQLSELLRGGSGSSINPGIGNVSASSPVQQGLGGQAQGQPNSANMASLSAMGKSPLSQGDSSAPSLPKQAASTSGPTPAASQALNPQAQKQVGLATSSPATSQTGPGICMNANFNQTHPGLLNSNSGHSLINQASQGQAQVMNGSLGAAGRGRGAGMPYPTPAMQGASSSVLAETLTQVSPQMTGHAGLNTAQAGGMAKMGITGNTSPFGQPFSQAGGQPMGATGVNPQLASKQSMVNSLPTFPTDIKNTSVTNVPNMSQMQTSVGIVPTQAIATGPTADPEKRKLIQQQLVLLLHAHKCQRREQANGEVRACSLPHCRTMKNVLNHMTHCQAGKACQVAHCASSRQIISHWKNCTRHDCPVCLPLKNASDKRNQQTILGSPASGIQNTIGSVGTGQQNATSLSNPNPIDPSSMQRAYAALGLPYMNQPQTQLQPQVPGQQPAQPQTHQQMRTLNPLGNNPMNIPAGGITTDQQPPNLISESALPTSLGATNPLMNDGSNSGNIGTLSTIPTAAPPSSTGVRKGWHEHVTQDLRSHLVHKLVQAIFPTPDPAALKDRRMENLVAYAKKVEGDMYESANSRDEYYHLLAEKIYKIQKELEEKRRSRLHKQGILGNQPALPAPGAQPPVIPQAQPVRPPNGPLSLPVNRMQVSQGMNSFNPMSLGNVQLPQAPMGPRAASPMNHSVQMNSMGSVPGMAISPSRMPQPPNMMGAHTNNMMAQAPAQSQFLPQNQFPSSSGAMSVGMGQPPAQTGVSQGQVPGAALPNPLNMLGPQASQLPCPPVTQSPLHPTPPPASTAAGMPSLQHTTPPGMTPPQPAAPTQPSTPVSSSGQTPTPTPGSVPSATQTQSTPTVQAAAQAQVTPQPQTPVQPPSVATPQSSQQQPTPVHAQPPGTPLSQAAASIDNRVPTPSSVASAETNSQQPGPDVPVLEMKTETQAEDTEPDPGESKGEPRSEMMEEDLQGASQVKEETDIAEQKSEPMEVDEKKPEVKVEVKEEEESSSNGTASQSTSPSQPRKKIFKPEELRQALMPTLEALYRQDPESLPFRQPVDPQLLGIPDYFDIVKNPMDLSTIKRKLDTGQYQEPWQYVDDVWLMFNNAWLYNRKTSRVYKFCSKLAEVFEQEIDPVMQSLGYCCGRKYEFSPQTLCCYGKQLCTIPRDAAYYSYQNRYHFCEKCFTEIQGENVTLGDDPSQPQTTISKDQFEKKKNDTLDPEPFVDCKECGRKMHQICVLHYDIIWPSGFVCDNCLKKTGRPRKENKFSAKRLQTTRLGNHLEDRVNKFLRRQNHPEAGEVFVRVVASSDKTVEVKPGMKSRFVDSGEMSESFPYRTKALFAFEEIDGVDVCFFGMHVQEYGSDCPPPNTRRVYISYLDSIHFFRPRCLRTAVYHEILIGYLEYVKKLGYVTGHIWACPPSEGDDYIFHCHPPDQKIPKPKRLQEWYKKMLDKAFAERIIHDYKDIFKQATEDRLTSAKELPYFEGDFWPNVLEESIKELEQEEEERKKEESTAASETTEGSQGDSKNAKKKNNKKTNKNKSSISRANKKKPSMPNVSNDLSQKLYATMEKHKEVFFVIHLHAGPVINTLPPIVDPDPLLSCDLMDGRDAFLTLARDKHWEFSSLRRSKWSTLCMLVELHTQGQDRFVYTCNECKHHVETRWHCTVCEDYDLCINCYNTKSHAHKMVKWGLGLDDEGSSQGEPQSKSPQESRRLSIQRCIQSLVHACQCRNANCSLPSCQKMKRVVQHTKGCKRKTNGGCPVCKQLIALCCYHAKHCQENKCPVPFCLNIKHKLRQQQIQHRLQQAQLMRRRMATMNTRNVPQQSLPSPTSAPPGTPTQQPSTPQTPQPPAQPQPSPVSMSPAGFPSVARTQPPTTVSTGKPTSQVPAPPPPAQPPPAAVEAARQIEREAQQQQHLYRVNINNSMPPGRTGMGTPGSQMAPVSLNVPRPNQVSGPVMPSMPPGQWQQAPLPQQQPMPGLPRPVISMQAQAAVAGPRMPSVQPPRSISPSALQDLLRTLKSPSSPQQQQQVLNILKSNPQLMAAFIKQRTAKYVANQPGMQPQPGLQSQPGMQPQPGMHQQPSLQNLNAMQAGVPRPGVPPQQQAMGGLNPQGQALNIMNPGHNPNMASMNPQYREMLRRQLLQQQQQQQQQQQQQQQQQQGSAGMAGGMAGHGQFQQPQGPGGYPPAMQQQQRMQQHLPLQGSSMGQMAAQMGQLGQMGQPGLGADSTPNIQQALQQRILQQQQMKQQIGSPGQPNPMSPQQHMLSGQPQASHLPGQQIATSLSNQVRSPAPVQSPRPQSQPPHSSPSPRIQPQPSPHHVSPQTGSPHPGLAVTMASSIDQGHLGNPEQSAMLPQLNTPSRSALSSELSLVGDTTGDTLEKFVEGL

CBP degradation (immunoblot) [1]: noticeable degradation
P300 degradation (immunoblot) [2]: noticeable degradation
SMILES: C[C@@H]1CC(=O)Nc2cccc(-c3ccc4c(c3)c(-c3cnn(C(=O)CCCCCCCCCNc5cccc6c5C(=O)N(C5CCC(=O)NC5=O)C6=O)c3)nn4C)c2N1 (stereo partly drawn) [Compound 31, 2-(2,6-dioxopiperidin-3-yl)-4-((10-(4-(1-methyl-5-((R)-4-methyl-2-oxo-2,3,4,5-tetrahydro-1H-benzo[b][1,4]diazepin-6-yl)-1H-indazol-3-yl)-1H-pyrazol-1-yl)-10-oxodecyl)amino)isoindoline-1,3-dione]
selectivity of P300 and CBP degradation against BRD2/3/4 [3]: selective
